{"source": "patent US20190161451A1", "about": "“HERBICIDAL PYRIMIDINE COMPOUNDS” (BASF SE, priority 2016, published 2019)", "key": {"[1]": {"tested_on": "AVEFA", "assay": "greenhouse experiment, post-emergence treatment", "type": "in vivo, Avena fatua", "details": "post-emergence method, application rate 1000 g/ha, scale from 0 to 100", "description": "(§1) The culture containers used were plastic flowerpots containing loamy sand with approximately 3.0% of humus as the substrate. The seeds of the test plants were sown separately for each species.\n(§2) For the post-emergence treatment, the test plants were first grown to a height of 3 to 15 cm, depending on the plant habit, and only then treated with the active ingredients which had been suspended or emulsified in water. For this purpose, the test plants were either sown directly and grown in the same containers, or they were first grown separately as seedlings and transplanted into the test containers a few days prior to treatment.\n(§3) Depending on the species, the plants were kept at 10-25° C. or 20-35° C., respectively.\n(§4) The test period extended over 2 to 4 weeks. During this time, the plants were tended, and their response to the individual treatments was evaluated.\n(§5) Evaluation was carried out using a scale from 0 to 100. 100 means no emergence of the plants, or complete destruction of at least the aerial moieties, and 0 means no damage, or normal course of growth. A good herbicidal activity is given at values of at least 70 and a very good herbicidal activity is given at values of at least 85.\n(§6) The plants used in the greenhouse experiments were of the following species: […]"}, "[2]": {"tested_on": "APESV", "assay": "greenhouse experiment, pre-emergence treatment", "type": "in vivo, Apera spica-venti", "details": "pre-emergence method, application rate 1000 g/ha, scale from 0 to 100", "description": "as §1\n(§7) For the pre-emergence treatment, the active ingredients, which had been suspended or emulsified in water, were applied directly after sowing by means of finely distributing nozzles.\n(§8) The containers were irrigated gently to promote germination and growth and subsequently covered with transparent plastic hoods until the plants had rooted. This cover caused uniform germination of the test plants, unless this had been impaired by the active ingredients.\nas §3, §4, §5, §6"}, "[3]": {"tested_on": "ALOMY", "assay": "greenhouse experiment, post-emergence treatment", "type": "in vivo, Alopecurus myosuroides", "details": "post-emergence method, application rate 1000 g/ha, scale from 0 to 100", "description": "as §1, §2, §3, §4, §5, §6"}, "[4]": {"tested_on": "ECHCG", "assay": "greenhouse experiment, pre-emergence treatment", "type": "in vivo, Echinocloa crus-galli", "details": "pre-emergence method, application rate 1000 g/ha, scale from 0 to 100", "description": "as §1, §7, §8, §3, §4, §5, §6"}, "[5]": {"tested_on": "SETFA", "assay": "greenhouse experiment, pre-emergence treatment", "type": "in vivo, Setaria faberi Herrm", "details": "pre-emergence method, application rate 1000 g/ha, scale from 0 to 100", "description": "as §1, §7, §8, §3, §4, §5, §6"}}}
{"smiles": "O=C(O)c1nc(C2CC2)ncc1-c1c(Cl)ccc2c1OCO2", "note": "[example 14]", "values": [{"measurement": "herbicidal activity against AVEFA", "setting": "[1]", "value": "good (A good herbicidal activity is given at values of at least 70)"}, {"measurement": "herbicidal activity against APESV", "setting": "[2]", "value": "very good (a very good herbicidal activity is given at values of at least 85)"}, {"measurement": "herbicidal activity against ALOMY", "setting": "[3]", "value": "good (A good herbicidal activity is given at values of at least 70)"}, {"measurement": "herbicidal activity against ECHCG", "setting": "[4]", "value": "very good (a very good herbicidal activity is given at values of at least 85)"}]}
{"smiles": "COC(=O)c1nc(C2CC2)ncc1-c1ccc2ccccc2c1Cl", "note": "[example 26]", "values": [{"measurement": "herbicidal activity against SETFA", "setting": "[5]", "value": "very good (a very good herbicidal activity is given at values of at least 85)"}]}
